Experimental data: ChEMBL document CHEMBL4725367, “Novel anticancer Hsp90 inhibitor disubstituted pyrazolyl 2-aminopyrimidine compound 7t induces cell cycle arrest and apoptosis via mitochondrial pathway in MCF-7 cells” (Bioorg Med Chem Lett, 2020)

Tests used:
Design in all cases: scale not given: the % may be the effect or the level left
[1] = biological target: T1, Heat shock protein HSP90 (Homo sapiens) (UniProt P07900+P08238); test: Inhibition of HSP90 in human MCF7 cells assessed as cell cycle arrest by measuring accumulation at Sub-G1 phase at 2.5 uM measured after 24 hrs by RNaseA/propidium iodide staining based flow cytometric analysis (reference value: 3.75 %)
[2] = biological target: T1, Heat shock protein HSP90 (Homo sapiens); test: Inhibition of HSP90 in human MCF7 cells assessed as cell cycle arrest by measuring accumulation at G0/G1 phase at 2.5 uM measured after 24 hrs by RNaseA/propidium iodide staining based flow cytometric analysis (reference value: 39.10 %)
[3] = biological target: T1, Heat shock protein HSP90 (Homo sapiens); test: Inhibition of HSP90 in human MCF7 cells assessed as cell cycle arrest by measuring accumulation at S phase at 2.5 uM measured after 24 hrs by RNaseA/propidium iodide staining based flow cytometric analysis (reference value: 7.08 %)
[4] = biological target: T1, Heat shock protein HSP90 (Homo sapiens); test: Inhibition of HSP90 in human MCF7 cells assessed as cell cycle arrest by measuring accumulation at G2/M phase at 2.5 uM measured after 24 hrs by RNaseA/propidium iodide staining based flow cytometric analysis (reference value: 25.08 %)
[5] = biological target: T1, Heat shock protein HSP90 (Homo sapiens); test: Inhibition of HSP90 in human MCF7 cells assessed as cell cycle arrest by measuring accumulation at Sub-G1 phase at 5 uM measured after 24 hrs by RNaseA/propidium iodide staining based flow cytometric analysis (reference value: 3.75 %)
[6] = biological target: T1, Heat shock protein HSP90 (Homo sapiens); test: Inhibition of HSP90 in human MCF7 cells assessed as cell cycle arrest by measuring accumulation at G0/G1 phase at 5 uM measured after 24 hrs by RNaseA/propidium iodide staining based flow cytometric analysis (reference value: 39.10 %)
[7] = biological target: T1, Heat shock protein HSP90 (Homo sapiens); test: Inhibition of HSP90 in human MCF7 cells assessed as cell cycle arrest by measuring accumulation at S phase at 5 uM measured after 24 hrs by RNaseA/propidium iodide staining based flow cytometric analysis (reference value: 7.08 %)
[8] = biological target: T1, Heat shock protein HSP90 (Homo sapiens); test: Inhibition of HSP90 in human MCF7 cells assessed as cell cycle arrest by measuring accumulation at G2/M phase at 5 uM measured after 24 hrs by RNaseA/propidium iodide staining based flow cytometric analysis (reference value: 25.08 %)
[9] = biological target: T1, Heat shock protein HSP90 (Homo sapiens); test: Inhibition of HSP90 in human MCF7 cells assessed as cell cycle arrest by measuring accumulation at Sub-G1 phase at 10 uM measured after 24 hrs by RNaseA/propidium iodide staining based flow cytometric analysis (reference value: 3.75 %)
[10] = biological target: T1, Heat shock protein HSP90 (Homo sapiens); test: Inhibition of HSP90 in human MCF7 cells assessed as cell cycle arrest by measuring accumulation at G0/G1 phase at 10 uM measured after 24 hrs by RNaseA/propidium iodide staining based flow cytometric analysis (reference value: 39.10 %)
[11] = biological target: T1, Heat shock protein HSP90 (Homo sapiens); test: Inhibition of HSP90 in human MCF7 cells assessed as cell cycle arrest by measuring accumulation at S phase at 10 uM measured after 24 hrs by RNaseA/propidium iodide staining based flow cytometric analysis (reference value: 7.08 %)
[12] = biological target: T1, Heat shock protein HSP90 (Homo sapiens); test: Inhibition of HSP90 in human MCF7 cells assessed as cell cycle arrest by measuring accumulation at G2/M phase at 10 uM measured after 24 hrs by RNaseA/propidium iodide staining based flow cytometric analysis (reference value: 25.08 %)
[13] = biological target: T1, Heat shock protein HSP90 (Homo sapiens); test: Inhibition of HSP90 in human MCF7 cells assessed as induction of apoptosis by measuring live cells at 2.5 uM measured after 24 hrs by annexinV-FITC/propidium iodide staining based flow cytometry (reference value: 90.77 %); assay type: cell-based
[14] = biological target: T1, Heat shock protein HSP90 (Homo sapiens); test: Inhibition of HSP90 in human MCF7 cells assessed as induction of apoptosis by measuring early apototic cells at 2.5 uM measured after 24 hrs by annexinV-FITC/propidium iodide staining based flow cytometry (reference value: 1.31 %); assay type: cell-based
[15] = biological target: T1, Heat shock protein HSP90 (Homo sapiens); test: Inhibition of HSP90 in human MCF7 cells assessed as induction of apoptosis by measuring late apototic cells at 2.5 uM measured after 24 hrs by annexinV-FITC/propidium iodide staining based flow cytometry (reference value: 7.91 %); assay type: cell-based
[16] = biological target: T1, Heat shock protein HSP90 (Homo sapiens); test: Inhibition of HSP90 in human MCF7 cells assessed as induction of apoptosis by measuring necrotic cells at 2.5 uM measured after 24 hrs by annexinV-FITC/propidium iodide staining based flow cytometry (reference value: 0.01 %); assay type: cell-based
[17] = biological target: T1, Heat shock protein HSP90 (Homo sapiens); test: Inhibition of HSP90 in human MCF7 cells assessed as induction of apoptosis by measuring live cells at 5 uM measured after 24 hrs by annexinV-FITC/propidium iodide staining based flow cytometry (reference value: 90.77 %); assay type: cell-based
[18] = biological target: T1, Heat shock protein HSP90 (Homo sapiens); test: Inhibition of HSP90 in human MCF7 cells assessed as induction of apoptosis by measuring early apototic cells at 5 uM measured after 24 hrs by annexinV-FITC/propidium iodide staining based flow cytometry (reference value: 1.31 %); assay type: cell-based
[19] = biological target: T1, Heat shock protein HSP90 (Homo sapiens); test: Inhibition of HSP90 in human MCF7 cells assessed as induction of apoptosis by measuring late apototic cells at 5 uM measured after 24 hrs by annexinV-FITC/propidium iodide staining based flow cytometry (reference value: 7.91 %); assay type: cell-based
[20] = biological target: T1, Heat shock protein HSP90 (Homo sapiens); test: Inhibition of HSP90 in human MCF7 cells assessed as induction of apoptosis by measuring necrotic cells at 5 uM measured after 24 hrs by annexinV-FITC/propidium iodide staining based flow cytometry (reference value: 0.01 %); assay type: cell-based

Activity [1]: 6.27%
Activity [2]: 35.2%
Activity [3]: 7.74%
Activity [4]: 27.2%
Activity [5]: 16.7%
Activity [6]: 28%
Activity [7]: 5.15%
Activity [8]: 23%
Activity [9]: 23.7%
Activity [10]: 25.2%
Activity [11]: 4.13%
Activity [12]: 20.1%
Activity [13]: 87.9%
Activity [14]: 1.94%
Activity [15]: 10.1%
Activity [17]: 77.4%
Activity [18]: 3.8%
Activity [19]: 18.6%
SMILES: Nc1nc(-c2ccc(Br)cc2)cc(-c2cn(-c3ccc(Cl)cc3)nc2-c2ccc([N+](=O)[O-])cc2)n1
Activity [16]: 0.07%
Activity [20]: 0.17%
